According to patent US9464326B2, “Total and phosphorylated IL-1 receptor-associated kinase-1 and IL-1 receptor-associated kinase-4 as a biomarker for cancer progression and chemotherapy resistance” (University of Maryland, Baltimore, priority 2012, dated 2016):

How the values were obtained:
Type in all cases: cell-based, human
[1] = system: CCRF-CEM cells; test: Cell cycle analysis (PI staining); details: 5 uM
Procedure: Control and treated cells were collected, fixed and stained with propidium iodide (100 μg/mL) in PBS containing sodium citrate (1 mg/mL), Triton-X-100 (0.1%), and RNAse (20 μg/mL) for 30 min. Data were acquired on a BD FACScan flow cytometer using CellQuest software (BD Immunocytometry Systems, San Jose, Calif.) and analyzed by using FlowJo software (Tree Star, Inc., Ashland, Oreg.).
It was investigated whether the reduced proliferation that we observed with IRAK-1,-4 inhibitor (FIG. 11 and FIG. 12) was a result of cell cycle arrest or apoptosis. CCRF-CEM cells were treated with IRAK-1,-4 inhibitor for 24, 48, 72, and 96 hours.

[2] = system: melanoma cells; test: Western blot of phosphorylated NF-KB; details: 48 hrs, vs DMSO, FIG. 7C
Procedure: FIG. 7. TLR and TLR signaling-related protein expression profiles on melanoma cell lines. (A) The expression levels of TLR1-TLR10 and various TLR-related proteins were examined by Western blot in samples from human melanoma cell lines. (B) The TLR1-TLR2 ligand Pam3CysK4 was added to A375 cells for 48 hrs. Cytokine and chemokine production by was determined using a Milliplex cytokine/chemokine array. (C) IRAK-1,-4 inhibitor or vehicle alone (DMSO) was added to melanoma cells for 48 hrs. The level of phosphorylated and non-phosphorylated p65 subunit of NF-KB was determined by Western blot. (D) Cytokine and chemokine levels in the supernatant A375 cell culture were examined using a Milliplex cytokine/chemokine array 48 hours after adding IRAK-1,-4 inhibitor or DMSO. ANOVA; **P<0.001, *P<0.05.
Total cell extracts were prepared from melanoma cells. […] Melanoma tissue arrays were purchased from US Biomax, Inc (Rockville, Md.). For immunohistochemical staining samples were stained with mouse monoclonal anti-human phosphor-IRAK.-4 antibody (Abnova; dilution, 3.5 μg/ml) or normal mouse serum. […] IHC specimens were analyzed using “quick score” system in which the intensity of the immunohistochemical reaction was scored by multiplying the intensity 1 (weak), 2 (moderate), and 3 (strong) and the proportion of cells staining positively 0 (<10%), 1 (10-25%), 2 (26-50%), 3 (51-75%) or 4 (>75%).

[3] = system: CEM-C1; test: Proliferation (3H-thymidine) of CEM-C1
Description: CCRF-CEM, CEM/C1, CEM/C2, CEM-C7, Jurkat, Loucy, Molt-4, HSB-2, SUP-T1, Hut 78, HH, Hut 102, MO, and H9 T-leukemia and T-lymphoma cell lines were purchased from the American Type Culture Collection (Manassas, Va., USA). All of the cell lines were initially expanded and cryopreserved within one month of receipt. Cells were typically used for 6 months at which time a fresh vial of cryopreserved cells was used. Total T cells from healthy donors were isolated via negative selection followed by positive selection using a CD3+ selection kit (Invitrogen, Carlsbad, Calif.). T cells were isolated from patients with T-ALL bone marrow or peripheral blood samples containing more than 70% leukemia cells using a CD2+ isolation kit (STEMCELL Technologies, Vancouver, Canada). All tissues were collected under institutional IRB-approved protocols and all participants gave written informed assent/consent. For in vitro experiments, T-ALL cells were cultured in AIM-V medium supplemented with 20% human AB serum in the presence of recombinant human stem cell factor (50 ng/mL; Amgen, Thousand Oaks, Calif.), insulin (20 nM; Sigma-Aldrich, St Louis, Mo., USA) and IL-7 (50 ng/mL; R&D Systems, Minneapolis, Minn., USA). In other experiments, protein lysate was collected using the Full Moon Biosystems (Sunnyvale, Calif., USA) buffer prior to protein examination by western blot or protein array.
Cells were cultured in a 96-well plate (Corning Costar, Corning, N.Y., USA) with various concentrations of TLR ligands 1-9, starting at 10 μg/ml, in a final volume of 200 ul. TLR ligands were diluted 2-fold. Cell lines (25-40×10^3/well) were cultured for 54 hours, whereas fresh patient-derived T-ALL cells (200×10^3/well) were cultured for 30 hours prior to adding [^3H]-thymidine for 18 hours. After this time point, cells were harvested with a Packard Filter-Mate-96 cell harvester (Perkin Elmer, Waltham, Mass., USA) and counted on Packard Top Count-NXT (Perkin Elmer, Waltham, Mass., USA). Results were expressed as average counts per minute (cpm). In some experiments CCRF-CEM cells were pre-treated with TLR1-TLR2 ligand (Pam3CysK4; 2.5 ug/ml) for 48 hrs, washed, and then cultured in the presence of varying concentrations of FBS. Forty-eight hours later, proliferation (±SD) was determined by ^3H-thymidine incorporation. Alternatively, apoptosis was measured by flow cytometry after staining cells with Annexin-V (BD Pharmingen, San Diego, Calif., USA) and propidium iodide (Sigma). Cell number was counted under microscopy by staining cells with trypan blue. […]

| Compound | decrease of percentage of cells in S phase ([1]; FIG. 14C) [%] | percentage of cells in G0/G1 phase ([1]; after 96 hours) [%] | percentage of cells in G0/G1 phase ([1]; within 24 hours (from 25%)) [%] | phosphorylated NF-KB (p-NF-KB) [2] | Proliferative effects of TLR ligands ([3]; 3H-thymidine uptake, 72 h) | TLR ligand concentration in parentheses below the symbol ([3]; no unit in table (μg/ml)) |
| --- | --- | --- | --- | --- | --- | --- |
| O=C(Nc1nc2ccccc2n1CCN1CCOCC1)c1cccc([N+](=O)[O-])c1 [IRAK-1,-4 inhibitor] | ~30 | 50 | 43 | marked reduction | – | – |
| tripalmitoyl-S-(bis(palmitoyloxy)propyl)-Cys-Ser-(Lys)3-Lys [Pam3Cysk4] | – | – | – | – | + (enhanced proliferation by 25% or greater) | (2.5) |
